This is an account of results in ChEMBL document CHEMBL1201862, “PubChem BioAssay data set” (2004).

SMILES strings stand for the structures.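 Compound exposure: 48 hours, 5 concentrations, 96-well plates. GI50 marks 50% less growth.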 Calls of active or inactive are those of the source. Cut-off read from the data, not from the text of the source: active = GI50 up to about 1.1 µM and inactive = higher. A value given as a limit tells only on which side of the number the result lay.

Test systems include 786-0; DLD-1; HCT-116; HOP-62; HT-29; KM12; M14; MOLT-4; NCI-H226; NCI-H23; NCI-H460; OVCAR-3; SN12C; SNB-75; SR; TK-10; UACC-257; UO-31; HOP-18; NCI/ADR-RES.
What all share (experiment): NCI tumour cell line growth inhibition, 48 h

With `COC(=O)CC(=O)OC1C[C@@H]2CCC3C(C)(C)CCC[C@]3(C)C23CC[C@@]1(C)C3` (stereo partly specified), the GI50 was 16.3 µM (inactive) in the assay with 786-0; 18.8 µM (inactive) with DLD-1; 17.3 µM (inactive) in the assay with HCT-116; 19.3 µM (inactive) in the assay with HOP-62; 19.2 µM (inactive) in the assay with HT-29; 18.5 µM (inactive) in the assay with KM12. Also, the GI50 with M14 is 18 µM (inactive); in the assay on MOLT-4, 53.8 µM (inactive); with NCI-H226 it was 28.6 µM (inactive); with NCI-H23 it was 18.4 µM (inactive); with NCI-H460, 19.8 µM (inactive); in the assay on OVCAR-3, 16.9 µM (inactive). In addition, the GI50 in the assay with SN12C was 17.5 µM (inactive); in the assay with SNB-75 it was 27.9 µM (inactive); in the assay on SR, > 100 µM (inactive); in the assay on TK-10, 19.1 µM (inactive); in the assay on UACC-257 it was 19.1 µM (inactive); in the assay on UO-31, 19.4 µM (inactive).
Regarding `Cc1ccc(S(=O)(=O)N/N=C/C(C)C)cc1`, the GI50 in the assay with 786-0, in the assay on DLD-1, in the assay with HCT-116, with HOP-18, in the assay on HOP-62 and in the assay on HT-29 was > 100 µM (inactive) in each case. Besides, the GI50 in the assay with KM12, in the assay with M14, in the assay on MOLT-4, in the assay with NCI-H23, in the assay on NCI-H460 and in the assay with OVCAR-3 was > 100 µM (inactive) in each case. The GI50 in the assay on SN12C was > 100 µM (inactive); in the assay with SNB-75 it was 70.6 µM (inactive); with TK-10 it was > 100 µM (inactive); in the assay on UACC-257, > 100 µM (inactive); with UO-31, > 100 µM (inactive).
As for `Fc1cccc(C2SCc3nc4ccccc4n32)c1` (stereo unspecified), the GI50 with 786-0 is > 100 µM (inactive); in the assay with DLD-1, 43.8 µM (inactive); in the assay with HCT-116, 45.9 µM (inactive); with HT-29 it was 68.7 µM (inactive); with KM12, 39.1 µM (inactive); in the assay on MOLT-4, 33.8 µM (inactive). For the same molecule, the GI50 with NCI-H226 is 41.1 µM (inactive); with NCI-H23 it was 19.6 µM (inactive); in the assay with NCI-H460, 39.6 µM (inactive); in the assay on OVCAR-3, 36.2 µM (inactive); in the assay on SN12C, 50.5 µM (inactive); in the assay with SNB-75, 36.4 µM (inactive). The GI50 is 35.6 µM (inactive) with SR, > 10 µM (inactive) with TK-10, 17.6 µM (inactive) with UACC-257 and 33.8 µM (inactive) in the assay with UO-31.
On to `Cc1cccc(-c2nc3c(C(=O)NCCN(C)C)cccc3[nH]2)c1`, for which the GI50 is 1.59 µM (inactive) in the assay on 786-0; 0.407 µM (active) in the assay on DLD-1; 0.329 µM (active) with HCT-116; 0.605 µM (active) with HOP-18; 1.72 µM (inactive) in the assay with HOP-62; 0.52 µM (active) in the assay on HT-29. Moreover, the GI50 in the assay with KM12 was 0.944 µM (active); in the assay on M14, 1.63 µM (inactive); in the assay on MOLT-4, 0.406 µM (active); in the assay with NCI-H226, 1.85 µM (inactive); in the assay on NCI-H23 it was 1.06 µM (active); in the assay on NCI-H460, 0.369 µM (active). The GI50 with OVCAR-3 is 1.89 µM (inactive); with SN12C, 0.65 µM (active); in the assay on SNB-75, 2.2 µM (inactive); in the assay on TK-10, 1.37 µM (inactive); with UACC-257, 1.67 µM (inactive); in the assay with UO-31, 2.06 µM (inactive).
In the case of `c1ccc(P(=C2c3ccccc3-c3ccccc32)(c2ccccc2)c2ccccc2)cc1`, the GI50 in the assay with 786-0 is 4.68 µM (inactive); with DLD-1, 4.32 µM (inactive); with HOP-18, 4.47 µM (inactive); with HOP-62, 1.69 µM (inactive); with HT-29 it was 2.99 µM (inactive); in the assay on KM12, 2.24 µM (inactive). For the same molecule, the GI50 in the assay on M14 was 8.34 µM (inactive); in the assay on NCI-H23, 2.45 µM (inactive); with NCI-H460, 3.37 µM (inactive); with OVCAR-3 it was 2.53 µM (inactive); with SN12C, 3.15 µM (inactive); in the assay with SNB-75, 28.1 µM (inactive). The figures for the GI50 with TK-10, in the assay on UACC-257 and in the assay with UO-31 were 7.64 µM (inactive), 3.94 µM (inactive) and 8.87 µM (inactive), respectively.
Regarding `O=C1/C(=N\O)C2CCC1C2` (stereo unspecified), the GI50 in the assay on 786-0, with HCT-116, with HOP-18, with HOP-62, in the assay on HT-29 and in the assay on KM12 was > 100 µM (inactive) throughout. In addition, the GI50 in the assay on M14, in the assay on MOLT-4, with NCI-H226, in the assay on NCI-H23, with NCI-H460 and in the assay on OVCAR-3 was > 100 µM (inactive) each time. In addition, the GI50 in the assay with SN12C, with SNB-75, in the assay on TK-10, with UACC-257 and with UO-31 was > 100 µM (inactive) in each case.
As for `Cc1c(NC(=O)C(C)(C)Br)c(=O)oc2c(C)c3occc(=O)c3cc12`, the GI50 in the assay on 786-0 was 53.7 µM (inactive); in the assay with DLD-1, 59 µM (inactive); in the assay on HCT-116, 59.4 µM (inactive); with HOP-62 it was 29.6 µM (inactive); with HT-29 it was 90.2 µM (inactive); in the assay on M14, 48.9 µM (inactive). In addition, the GI50 in the assay on MOLT-4 was 37.1 µM (inactive); in the assay on NCI-H226 it was 23.3 µM (inactive); with NCI-H23, 81.5 µM (inactive); with NCI-H460, 58.9 µM (inactive); in the assay on OVCAR-3, > 100 µM (inactive); with SN12C, 52.4 µM (inactive). In addition, the GI50 in the assay with SNB-75 is 35.7 µM (inactive); with SR it was 43 µM (inactive); in the assay with TK-10, > 100 µM (inactive); with UACC-257 it was > 100 µM (inactive); in the assay with UO-31 it was 21.3 µM (inactive).
Take `COc1ccc2c(c1)OC[C@@H]1c3cc4c(cc3O[C@H]21)OCO4`: the GI50 in the assay with 786-0 is > 100 µM (inactive); with DLD-1, > 100 µM (inactive); in the assay on HCT-116, > 100 µM (inactive); in the assay with HOP-18, 37.2 µM (inactive); in the assay on HOP-62, > 100 µM (inactive); with HT-29, > 100 µM (inactive). Besides, the GI50 in the assay with KM12, in the assay on M14, with MOLT-4, in the assay with NCI-H226, in the assay on NCI-H23 and in the assay with NCI-H460 was > 100 µM (inactive) in each case. The GI50 in the assay on OVCAR-3 is > 100 µM (inactive); in the assay on SNB-75 it was 11.6 µM (inactive); with TK-10 it was > 100 µM (inactive); in the assay on UO-31, > 100 µM (inactive).
`O=c1[nH]c(=O)n(C2OC(CO)C(N(O)Cc3ccc(F)cc3)C2O)cc1Br` (stereo unspecified): the GI50 in the assay with 786-0, in the assay with DLD-1, in the assay with HCT-116, with HT-29, with KM12 and in the assay on M14 was > 100 µM (inactive) throughout. The GI50 with MOLT-4, with NCI-H23, in the assay with NCI-H460, in the assay with OVCAR-3, with SN12C and in the assay on SNB-75 was > 100 µM (inactive) in each case. For the same molecule, the GI50 with SR, in the assay with TK-10, in the assay on UACC-257 and in the assay with UO-31 was > 100 µM (inactive) throughout.
Take `Cc1[nH]c2ccccc2c1/C=C/c1c(C)[nH]c2ccccc12`: the GI50 in the assay with 786-0, with DLD-1, in the assay on HCT-116, in the assay on HOP-62, in the assay on HT-29 and in the assay on KM12 was > 100 µM (inactive) each time. Further, the GI50 with M14, with MOLT-4, in the assay with NCI-H226, with NCI-H23, in the assay on NCI-H460 and in the assay on OVCAR-3 was > 100 µM (inactive) in each case. Further, the GI50 is 31 µM (inactive) in the assay with SNB-75, > 100 µM (inactive) in the assay on TK-10, > 100 µM (inactive) in the assay on UACC-257 and > 100 µM (inactive) in the assay with UO-31.
For the molecule `Cc1cc(Cl)ccc1NC(=O)C(=O)Cc1nc2ccccc2o1`, the GI50 in the assay on 786-0, in the assay on DLD-1, in the assay on HOP-18, in the assay with HOP-62, with HT-29 and in the assay with KM12 was > 100 µM (inactive) throughout. Further, the GI50 in the assay on M14, with MOLT-4, in the assay with NCI-H23, in the assay with NCI-H460, in the assay with OVCAR-3 and with SN12C was > 100 µM (inactive) in each case. For the same molecule, the GI50 in the assay on SNB-75, in the assay on TK-10, in the assay with UACC-257 and in the assay on UO-31 was > 100 µM (inactive) in each case.
Regarding `CCCCC(=O)OC[n+]1ccc2c(C)c3[nH]c4ccc(OC)cc4c3c(C)c2c1`, the GI50 in the assay on 786-0 was 0.118 µM (active); in the assay with DLD-1, 0.32 µM (active); with HCT-116 it was 0.0718 µM (active); in the assay with HOP-62 it was 0.47 µM (active); with HT-29, 0.243 µM (active); with KM12 it was 0.412 µM (active). Further, the GI50 in the assay with M14 is 1.04 µM (active); in the assay with MOLT-4 it was 0.0396 µM (active); in the assay on NCI-H226 it was 0.562 µM (active); in the assay with NCI-H23, 0.536 µM (active); in the assay on NCI-H460, 0.0736 µM (active); in the assay with NCI/ADR-RES, 0.234 µM (active). Further, the GI50 is 0.76 µM (active) in the assay with OVCAR-3; 0.146 µM (active) with SN12C; 1.07 µM (active) in the assay on SNB-75; 0.0506 µM (active) in the assay on SR; 2.64 µM (inactive) in the assay on TK-10; 2.13 µM (inactive) in the assay on UACC-257. For the same molecule, the GI50 in the assay on UO-31 is 1.04 µM (active).
